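Values below derive from 48-hour exposures of cells grown in 96-well plates, with endpoints linearly interpolated between the two concentrations bracketing the appropriate inhibition level. Abbreviation: GI50, concentration required for 50% inhibition of growth.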 Activity calls are given as the source filed them. No stated cut-off is given here; in the data, active = GI50 up to about 1.1 µM and inactive = higher.
Assays:
Assay in all cases: DTP human tumour cell line panel, 48 h
[1] = system: A498
[2] = system: EKVX
[3] = system: HOP-92
[4] = system: HT-29
[5] = system: IGROV-1
[6] = system: MCF7
[7] = system: MDA-MB-231
[8] = system: NCI-H226
[9] = system: NCI-H522
[10] = system: OVCAR-5
[11] = system: PC-3
[12] = system: RPMI-8226
[13] = system: SF-268
[14] = system: SK-MEL-5
[15] = system: SNB-75
[16] = system: SR
[17] = system: T47D
[18] = system: UACC-257
[19] = system: UO-31
[20] = system: HOP-62

| Compound | GI50 [1] | GI50 [2] | GI50 [3] | GI50 [4] | GI50 [5] | GI50 [6] | GI50 [7] | GI50 [8] | GI50 [9] | GI50 [10] | GI50 [11] | GI50 [12] | GI50 [13] | GI50 [14] | GI50 [15] | GI50 [16] | GI50 [17] | GI50 [18] | GI50 [19] | GI50 [20] |
| --- | --- | --- | --- | --- | --- | --- | --- | --- | --- | --- | --- | --- | --- | --- | --- | --- | --- | --- | --- | --- |
| CC(=O)Nc1ncc2c(n1)-c1ccccc1OC2 | > 100 µM (inactive) | > 100 µM (inactive) | > 100 µM (inactive) | > 100 µM (inactive) | > 100 µM (inactive) | > 100 µM (inactive) | > 100 µM (inactive) | > 100 µM (inactive) | > 100 µM (inactive) | > 100 µM (inactive) | > 100 µM (inactive) | > 100 µM (inactive) | 80.7 µM (inactive) | > 100 µM (inactive) | 65.2 µM (inactive) | > 100 µM (inactive) | > 100 µM (inactive) | > 100 µM (inactive) | > 100 µM (inactive) | – |
| CCC(NC1=NCCO1)c1cccs1 (stereo unspecified) | 22.3 µM (inactive) | 16.5 µM (inactive) | 17.4 µM (inactive) | 19.7 µM (inactive) | 20.8 µM (inactive) | 15.6 µM (inactive) | 20.7 µM (inactive) | 20.3 µM (inactive) | 19.5 µM (inactive) | 17 µM (inactive) | 13.4 µM (inactive) | 25.1 µM (inactive) | – | 16.8 µM (inactive) | 3.24 µM (inactive) | 25.8 µM (inactive) | 16.4 µM (inactive) | 18 µM (inactive) | 18.7 µM (inactive) | – |
| CC(=O)Nc1n[n+]([O-])c2cc(C)ccc2[n+]1[O-] | 5.22 µM (inactive) | 4.79 µM (inactive) | 1.01 µM (active) | 2.52 µM (inactive) | 1.48 µM (inactive) | 0.296 µM (active) | 6.81 µM (inactive) | 4.32 µM (inactive) | 2.05 µM (inactive) | 12 µM (inactive) | 1.81 µM (inactive) | 2.83 µM (inactive) | 3.57 µM (inactive) | 1.51 µM (inactive) | 2.88 µM (inactive) | 2.56 µM (inactive) | 2.34 µM (inactive) | 4.78 µM (inactive) | 3.38 µM (inactive) | 2.89 µM (inactive) |
| Clc1nc2c(-c3cccs3)ncnc2n1Cc1ccccc1 | 19.4 µM (inactive) | 21.4 µM (inactive) | 9.44 µM (inactive) | 39.8 µM (inactive) | 29.6 µM (inactive) | 6.04 µM (inactive) | 32.2 µM (inactive) | 15.8 µM (inactive) | 19.4 µM (inactive) | > 94.2 µM (inactive) | 26.2 µM (inactive) | 3.58 µM (inactive) | 29.6 µM (inactive) | 24.9 µM (inactive) | 21.3 µM (inactive) | 6.97 µM (inactive) | 10.1 µM (inactive) | 21.2 µM (inactive) | 0.435 µM (active) | 47.6 µM (inactive) |
| Cc1ccc2c(c1)[nH]c(=S)n2/C=C1\C(=O)Oc2ccccc2C1=O | 49.1 µM (inactive) | – | 39 µM (inactive) | 57.5 µM (inactive) | 39 µM (inactive) | > 100 µM (inactive) | 50.5 µM (inactive) | > 100 µM (inactive) | 38.7 µM (inactive) | > 100 µM (inactive) | 76.7 µM (inactive) | 65.2 µM (inactive) | 55.7 µM (inactive) | 40.6 µM (inactive) | 38.4 µM (inactive) | 71.6 µM (inactive) | 89.1 µM (inactive) | 82 µM (inactive) | 30.2 µM (inactive) | 51.3 µM (inactive) |
| COc1ccc(C2C(Cl)C(=O)N2NC(=O)c2ccc(N)cc2)cc1OC (stereo unspecified) | 16.6 µM (inactive) | 16.5 µM (inactive) | 2 µM (inactive) | 2.53 µM (inactive) | 1.36 µM (inactive) | 9.84 µM (inactive) | 14.7 µM (inactive) | 18.7 µM (inactive) | 1.98 µM (inactive) | 19.1 µM (inactive) | 12.9 µM (inactive) | 3.1 µM (inactive) | 10.9 µM (inactive) | 12.2 µM (inactive) | 15.6 µM (inactive) | 2.2 µM (inactive) | 11.1 µM (inactive) | 14.5 µM (inactive) | 12.1 µM (inactive) | 15.9 µM (inactive) |
| OCC(O)C(O)C(O)C1SC(c2ccccc2)=NN1c1ccccc1 (stereo unspecified) | > 88.5 µM (inactive) | > 95.7 µM (inactive) | 27 µM (inactive) | > 92 µM (inactive) | > 96.2 µM (inactive) | > 100 µM (inactive) | > 55 µM (inactive) | > 76 µM (inactive) | 33 µM (inactive) | > 84.9 µM (inactive) | > 57.5 µM (inactive) | > 86.3 µM (inactive) | 24.6 µM (inactive) | > 78.5 µM (inactive) | 16 µM (inactive) | > 81.3 µM (inactive) | > 46.8 µM (inactive) | > 89.1 µM (inactive) | 66.2 µM (inactive) | 38.9 µM (inactive) |
| COC(=O)c1ccc(NCC2=CC(=O)c3ccccc3C2=O)cc1 | 24.2 µM (inactive) | 21.1 µM (inactive) | 2.77 µM (inactive) | 25.7 µM (inactive) | 12.2 µM (inactive) | 18.4 µM (inactive) | 2.99 µM (inactive) | 16.4 µM (inactive) | 13.2 µM (inactive) | 21.6 µM (inactive) | 14.3 µM (inactive) | 6.32 µM (inactive) | 24.8 µM (inactive) | 11.7 µM (inactive) | 20.7 µM (inactive) | 14.6 µM (inactive) | 12.2 µM (inactive) | 14.3 µM (inactive) | 16.1 µM (inactive) | 16.2 µM (inactive) |
| Nc1cc([N+](=O)[O-])ccc1C(=O)N1CCC[C@H]1CO | > 100 µM (inactive) | > 100 µM (inactive) | > 100 µM (inactive) | > 100 µM (inactive) | > 100 µM (inactive) | > 100 µM (inactive) | > 100 µM (inactive) | > 100 µM (inactive) | > 100 µM (inactive) | – | > 100 µM (inactive) | > 100 µM (inactive) | > 100 µM (inactive) | – | > 100 µM (inactive) | > 100 µM (inactive) | 90.4 µM (inactive) | > 100 µM (inactive) | > 100 µM (inactive) | – |
| COC(=O)n1c(=O)nc2c3c(ncn21)Oc1c(c(-c2ccccc2)nn1-c1ccccc1)C3c1ccc(Cl)cc1 (stereo unspecified) | 2.03 µM (inactive) | – | 1.71 µM (inactive) | 1.56 µM (inactive) | – | 1.69 µM (inactive) | 1.67 µM (inactive) | 1.58 µM (inactive) | 1.5 µM (inactive) | 1.32 µM (inactive) | 1.59 µM (inactive) | 2.1 µM (inactive) | 1.3 µM (inactive) | 1.77 µM (inactive) | 2 µM (inactive) | 1.82 µM (inactive) | 1.71 µM (inactive) | 1.89 µM (inactive) | 1.68 µM (inactive) | 1.72 µM (inactive) |
| COc1ccc2c(c1)/c(=C/C#N)c1c3ccccc3[n+](C)n21 | 1.7 µM (inactive) | 2.69 µM (inactive) | 1.16 µM (inactive) | 2.24 µM (inactive) | 7.62 µM (inactive) | 6.1 µM (inactive) | 24 µM (inactive) | 4.29 µM (inactive) | 4.33 µM (inactive) | 8.63 µM (inactive) | 2.8 µM (inactive) | 1.96 µM (inactive) | 8.71 µM (inactive) | 6.62 µM (inactive) | 3.7 µM (inactive) | 6.34 µM (inactive) | 2.51 µM (inactive) | 6.14 µM (inactive) | 16.7 µM (inactive) | 5.73 µM (inactive) |
| COC(=O)C(CNC(=O)/C=C/c1ccc(OC)c(OC)c1)NC(=O)/C=C/c1ccc(OC)c(OC)c1 (stereo unspecified) | > 100 µM (inactive) | > 100 µM (inactive) | > 100 µM (inactive) | > 100 µM (inactive) | > 100 µM (inactive) | > 100 µM (inactive) | > 100 µM (inactive) | > 100 µM (inactive) | > 100 µM (inactive) | > 100 µM (inactive) | > 100 µM (inactive) | > 100 µM (inactive) | > 100 µM (inactive) | > 100 µM (inactive) | 90.6 µM (inactive) | > 100 µM (inactive) | 75.7 µM (inactive) | > 100 µM (inactive) | > 100 µM (inactive) | > 100 µM (inactive) |
| COc1cc2c3cc1Oc1c(O)c(OC)cc4c1[C@H](Cc1ccc(cc1)Oc1cc(ccc1O)C[C@H]3N(C)CC2)N(C)CC4 | 16.7 µM (inactive) | 16.7 µM (inactive) | 6.64 µM (inactive) | 3.84 µM (inactive) | 13.8 µM (inactive) | 13.3 µM (inactive) | 10.3 µM (inactive) | 29.4 µM (inactive) | 11 µM (inactive) | 23.6 µM (inactive) | 8.51 µM (inactive) | 5.33 µM (inactive) | 14.4 µM (inactive) | 7.33 µM (inactive) | 18.8 µM (inactive) | 1.63 µM (inactive) | 17.9 µM (inactive) | 15 µM (inactive) | 12.6 µM (inactive) | 16.4 µM (inactive) |
| CCN(CC)CCC(=O)c1ccc(C)cc1 | 16.4 µM (inactive) | 31.3 µM (inactive) | 18.2 µM (inactive) | 20.8 µM (inactive) | 17.7 µM (inactive) | 4.88 µM (inactive) | 14.9 µM (inactive) | 28.6 µM (inactive) | 13.8 µM (inactive) | 17.3 µM (inactive) | 54.7 µM (inactive) | 2.62 µM (inactive) | > 100 µM (inactive) | 13.1 µM (inactive) | 11.5 µM (inactive) | 28 µM (inactive) | 14.7 µM (inactive) | 17.2 µM (inactive) | 23 µM (inactive) | > 100 µM (inactive) |
